Results published in patent EP0390515A1, “Novel adenine derivatives and their use as agents for increasing crop yields” (MITSUBISHI GAS CHEMICAL COMPANY, INC., priority 1989, dated 1990).

Tested on: pig weed (Amaranthus caudatus)
Test: Assay of cytokinin activity to promote synthesis of betacyanin by pig weed cotyledon sections
Format: cell-based
Conditions: 27°C, 20 hours, dark
Procedure: Two sheets of filter paper were put double in a plastic container (19 x 28 cm) and were wetted with 60 ml of distilled water. Seeds of pig weed were sown on the filter papers and were germinated by keeping them in the dark at 27°C for 3 days. Seedlings of uniform size were chosen and were cut at the upper part of the hypocotyl and the seed coats were removed. This cotyledon with hypocotyl of 3-4 mm in length was used for assay.
Two sheets of filter paper were put double in a glass tubular bottle 32 mm in inner diameter and 1 ml of 0.0065M potassium phosphate buffer solution (pH: 6.3) containing a given concentration of the candidate compound, benzyladenine or zeatin and 0.5 g/l of tyrosine was added therein and ten of the above cotyledon sections were arranged therein and kept at 27°C for 20 hours in the dark. These ten cotyledon sections were put in a test tube containing 3 ml of distilled water and betacyanin was extracted by repeating thrice freezing and thawing. Absorbance of the solution was measured and the amount of the dye was calculated by the difference between the absorbance at 542 nm and at 620 nm. For the untreated group, 0.0065M potassium phosphate buffer solution (pH: 6.3) containing 0.5 g/l of tyrosine was used.

| Structure (SMILES) | The amount of betacyanin produced (difference between absorbance at 542 nm and 620 nm) (0.001 mg/l) | The amount of betacyanin produced (difference between absorbance at 542 nm and 620 nm) (0.01 mg/l) | The amount of betacyanin produced (difference between absorbance at 542 nm and 620 nm) (0.1 mg/l) | The amount of betacyanin produced (difference between absorbance at 542 nm and 620 nm) (1.0 mg/l) |
| --- | --- | --- | --- | --- |
| CON(C)CCNc1ncnc2nc[nH]c12 [MAED, N⁶-[2-(N-methoxy-N-methylamino)ethyl]adenine] | 0.040 | 0.058 | 0.121 | 0.214 |
| c1ccc(CNc2ncnc3nc[nH]c23)cc1 [Benzyladenine, 6-benzylaminopurine, reference compound] | 0.038 | 0.076 | 0.192 | 0.260 |
